Some results are limits rather than exact numbers.

In the first assay the target is T1, GAβ-dependent amyloid fibril formation (Human Aβ1-40 + GM1-containing liposome) (Homo sapiens, UniProt P05067).
T1 construct: Human Aβ1-40 (cat. #4307-v, prepared by Peptide Institute); purchased Peptide Institute 4307-v
T1 sequence (P05067 672-711 limits assumed): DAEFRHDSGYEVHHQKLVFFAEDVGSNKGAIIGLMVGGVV
The assay can be described thus: Thioflavin T (ThT) assay of GAβ-dependent amyloid fibril formation (Aβ1-40 with GM1-containing liposome). Particulars: @5 μM; read-out: ThT Inhibitory activity (% inhibition). In kind it is biochemical. Put shortly:
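Human Aβ1-40 (75 μM stock) pre-incubated 10 min at room temperature with compound (75 or 15 μM solution), then GM1-containing cholesterol/sphingomyelin liposome added and incubated 37° C, 18 hours. Fibrils quantified by ThT fluorescence (ex 430/em 490 nm, pH 8.5 glycine buffer); inhibition as ratio to compound-free control.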
On to `O=C(N[C@@H](CO)c1nc(-c2ccc(OC(F)(F)F)cc2)no1)c1cccc(Cl)c1` [Compound 63, (S)-3-chloro-N-(2-hydroxy-1-[3-{4-(trifluoro-methoxy)phenyl}-1,2,4-oxadiazol-5-yl]ethyl) benzamide], for which the inhibition at 5 µM stood at 53%.

Still in this assay, the particulars now being: @25 μM; read-out: ThT Inhibitory activity (% inhibition).
As to `O=C(N[C@@H](CO)c1nc(-c2ccc(C(F)(F)F)cc2)no1)c1ccc(F)cc1` [Compound 133, (S)-4-fluoro-N-(2-hydroxy-1-(3-(4-(trifluoromethyl)phenyl)-1,2,4-oxadiazol-5-yl)ethyl)benzamide], the inhibition at 25 µM is 88%.
Same read-out and setting: the value for `O=C(N[C@@H](CO)c1nc(-c2ccc(OC(F)(F)F)cc2)no1)c1cccc(Cl)c1` [Compound 63, (S)-3-chloro-N-(2-hydroxy-1-[3-{4-(trifluoro-methoxy)phenyl}-1,2,4-oxadiazol-5-yl]ethyl) benzamide] was 99%.
The same measure, in the same setting: the value for `CNCC(NC(=O)c1ccc(Cl)cc1)c1nnc(-c2ccc(OC(F)(F)F)cc2)o1` (centres unmarked) [Compound 118, 4-chloro-N-(2-(methylamino)-1-(5-(4-(tri-fluoromethoxy)phenyl)-1,3,4-oxadiazol-2-yl)ethyl)benzamide] was 72%.

Staying with this assay, now noted: final concentration of the compound 25 μM; ratio of ThT fluorescence intensity with/without compound; 37° C. for 18 hours; read-out: inhibition rate against amyloid fibril formation (inhibitory activity on a scale of A to C).
Regarding `O=C(N[C@@H](CO)c1nc(-c2ccc(C(F)(F)F)cc2)no1)c1ccc(F)cc1` [Compound 133, (S)-4-fluoro-N-(2-hydroxy-1-(3-(4-(trifluoromethyl)phenyl)-1,2,4-oxadiazol-5-yl)ethyl)benzamide], the inhibition at 25 µM is over 80%.
The same measure, in the same setting: the value for `COc1ccc(-c2noc([C@@H](NC(=O)c3ccc(Cl)cc3)[C@@H](C)O)n2)cc1` [Compound 132, 4-chloro-N-((1S,2R)-2-hydroxy-1-(3-(4-methoxy-phenyl)-1,2,4-oxadiazol-5-yl)propyl)benzamide] was over 80%.

Staying with this assay, now noted: inhibition rate against amyloid fibril formation, final concentration of the compound 25 μM; 25 µM.
Regarding `O=C(N[C@@H](CO)c1nc(-c2ccc(C(F)(F)F)cc2)no1)c1ccc(F)cc1` [Compound 133, (S)-4-fluoro-N-(2-hydroxy-1-(3-(4-(trifluoromethyl)phenyl)-1,2,4-oxadiazol-5-yl)ethyl)benzamide], the “Inhibitory activity ABC evaluation” value is reported as “A (80% or more was evaluated as A)”.

Still in this assay, the particulars now being: inhibition rate against amyloid fibril formation, final concentration of the compound 25 μM; read-out: Inhibitory activity ABC evaluation.
As to `O=C(N[C@@H](CO)c1nc(-c2c[nH]c3ccc(Cl)cc23)no1)c1ccc(F)cc1` [Compound 233, N-[(1S)-1-[3-(5-chloro-1H-indol-3-yl)-1,2,4-oxadiazol-5-yl]-2-hydroxyethyl]-4-fluorobenzamide], the inhibition at 25 µM fell in the range of 40 to 80%.
Turning to `O=C(N[C@@H](CO)c1nc(-c2ccc(C(F)(F)F)cc2)no1)C1CC(=O)N(c2ccc(Cl)cc2)C1` (stereo partly drawn) [Compound 193, 1-(4-chlorophenyl)-N-[(1S)-2-hydroxy-1-{3-[4-(trifluoromethyl)phenyl]-1,2,4-oxadiazol-5-yl}ethyl]-5-oxopyrrolidine-3-carboxamide], the inhibition at 25 µM fell in the range of 40 to 80%.
The same measure, in the same setting: then `O=C(N[C@@H](CO)c1nc(-c2ccc(CF)cc2)no1)c1ccc(F)cc1` [Compound 161, 4-fluoro-N-[(1S)-1-{3-[4-(fluoromethyl)phenyl]-1,2,4-oxadiazol-5-yl}-2-hydroxyethyl] benzamide], with 40 to 80%; and `COc1ccc(-c2noc(C3CC(=O)N(c4ccc(Cl)cc4)C3)n2)cc1` (centres unmarked) [Compound 24, 1-(4-chlorophenyl)-4-{3-(4-methoxyphenyl)-1,2,4-oxadiazol-5-yl}pyrrolidin-2-one], with 40 to 80%; and `COc1ccc(-c2noc(C3CC(=O)N(c4ccc(Cl)cc4)C3)n2)cc1F` (centres unmarked) [Compound 42], with 40 to 80%.
As to `O=C(c1cccc(Cl)c1)N1C[C@H](O)C[C@H]1c1nc(-c2ccc(OC(F)(F)F)cc2)no1` [Compound 58, (3-chlorophenyl) ((2S,4R)-4-hydroxy-2-[3-{4-(trifluoro-methoxy)phenyl}-1,2,4-oxadiazol-5-yl]pyrrolidin-1-yl)methanone], the inhibition at 25 µM was in the range of 40 to 80%.
Take `O=C(Nc1nc(-c2ccc(C(F)(F)F)cc2)no1)c1ccccc1` [Compound 174, N-{3-[4-(trifluoromethyl)phenyl]-1,2,4-oxadiazol-5-yl} benzamide]: the inhibition at 25 µM was under 40%.
On the same count and under the same terms, then `O=C1CC(c2nc(-c3ccc(OCF)cc3)no2)CN1c1ccc(Cl)cc1` (centres unmarked) [Compound 53, 1-(4-chlorophenyl)-4-[3-{4-(fluoromethoxy)phenyl}-1,2,4-oxadiazol-5-yl]pyrrolidin-2-one], with 40 to 80%.
Regarding `O=C(N[C@@H](CO)c1nc(-c2ccc(OC(F)(F)F)cc2)no1)c1cccc(Cl)c1` [Compound 63, (S)-3-chloro-N-(2-hydroxy-1-[3-{4-(trifluoro-methoxy)phenyl}-1,2,4-oxadiazol-5-yl]ethyl) benzamide], the inhibition at 25 µM was over 80%.
On the same count and under the same terms, the value for `O=C(N[C@@H](CO)c1nc(-c2ccc(C(F)(F)F)cn2)no1)c1ccc(F)cc1` [Compound 204, 4-fluoro-N-[(1S)-2-hydroxy-1-{3-[5-(trifluoromethyl)pyridin-2-yl]-1,2,4-oxadiazol-5-yl}ethyl]benzamide] was 40 to 80%; that for `O=S(=O)(N[C@@H](CO)c1nc(-c2ccc(OC(F)(F)F)cc2)no1)c1cccc(Cl)c1` [Compound 91, (S)-3-chloro-N-(2-hydroxy-1-[3-{4-(trifluoromethoxy)phenyl}-1,2,4-oxadiazol-5-yl]ethyl)benzenesulfonamide] was 40 to 80%.
Regarding `O=C(c1ccc(Cl)cc1)N1C[C@@H](O)C[C@H]1c1nc(-c2ccc(OC(F)(F)F)cc2)no1` [Compound 56, (4-chlorophenyl) ((2S,4S)-4-hydroxy-2-[3-{4-(trifluoro-methoxy)phenyl}-1,2,4-oxadiazol-5-yl]pyrrolidin-1-yl)methanone], the inhibition at 25 µM was under 40%.
Consider `O=C(N[C@@H](CO)c1nc(-c2ccc(C(F)(F)F)cc2)no1)c1ccc2[nH]nnc2c1` [Compound 238, N-[(1S)-2-hydroxy-1-{3-[4-(trifluoromethyl)phenyl]-1,2,4-oxadiazol-5-yl}ethyl]-1H-1,2,3-benzotriazole-5-carboxamide], for which the inhibition at 25 µM lay within 40 to 80%.
Still for that read-out and setting: then `O=C(NC(CN1CCOCC1)c1nnc(-c2ccc(OC(F)(F)F)cc2)o1)c1ccc(Cl)cc1` (centres unmarked) [Compound 117, 4-chloro-N-(2-morpholino-1-(5-(4-(trifluoro-methoxy)phenyl)-1,3,4-oxadiazol-2-yl)ethyl) benzamide], with 40 to 80%; and `O=C(N[C@@H](CO)c1nc(-c2cn(CCO)c3ccccc23)no1)c1ccc(F)cc1` [Compound 264], with 40 to 80%; and `COc1ccc(-c2nnc([C@H](CO)NC(=O)c3ccc(Cl)cc3)o2)cc1F` [Compound 113, (S)-4-chloro-N-(1-(5-(3-fluoro-4-methoxy-phenyl)-1,3,4-oxadiazol-2-yl)-2-hydroxy-ethyl)benzamide], with under 40%.
Same read-out and setting: then `O=C(N[C@@H](CO)c1nc(-c2ccc(CF)cc2)no1)c1ccccc1` [Compound 162, N-[(1S)-1-{3-[4-(fluoromethyl)phenyl]-1,2,4-oxadiazol-5-yl}-2-hydroxyethyl] benzamide], with 40 to 80%; and `COc1cccc2c(CC(=O)NCCc3nc(-c4c[nH]c5ccccc45)no3)c[nH]c12` [Compound 70, N-[2-{3-(1H-indol-3-yl)-1,2,4-oxadiazol-5-yl}ethyl]-2-(7-methoxy-1H-indol-3-yl) acetamide], with under 40%.
Consider `COc1ccc(-c2noc([C@@H](NC(=O)c3ccc(Cl)cc3)[C@@H](C)O)n2)cc1` [Compound 132, 4-chloro-N-((1S,2R)-2-hydroxy-1-(3-(4-methoxy-phenyl)-1,2,4-oxadiazol-5-yl)propyl)benzamide], for which the inhibition at 25 µM is over 80%.
In the case of `O=C(N[C@@H](CO)c1nc(-c2ccc(C(F)F)cc2)no1)c1ccc(F)cc1` [Compound 166, N-[(1S)-1-{3-[4-(difluoromethyl)phenyl]-1,2,4-oxadiazol-5-yl}-2-hydroxyethyl]-4-fluorobenzamide], the inhibition at 25 µM lay within 40 to 80%.
For `O=C1CC(c2nc(-c3ccc(OC(F)(F)F)cc3)no2)CN1c1cccc(Cl)c1` (centres unmarked) [Compound 27, 1-(3-chlorophenyl)-4-{3-[4-(trifluoromethoxy)phenyl]-1,2,4-oxadiazole-5-yl}pyrrolidin-2-one], the inhibition at 25 µM was 40 to 80%.
The same measure, in the same setting: then `O=C(N[C@H](CO)c1nc(-c2ccc(C(F)(F)F)cc2)no1)c1ccc(Cl)cc1` [Compound 214, 4-chloro-N-[(1R)-2-hydroxy-1-{3-[4-(trifluoromethyl)phenyl]-1,2,4-oxadiazol-5-yl}ethyl]benzamide], with 40 to 80%.
Still for that read-out and setting: then `O=C(NC(CO)c1nc(-c2ccc(OC(F)(F)F)cc2)no1)c1c[nH]c2ccccc12` (centres unmarked) [Compound 46, N-(2-hydroxy-1-[3-{4-(trifluoro-methoxy)phenyl}-1,2,4-oxadiazol-5-yl]ethyl)-1H-indole-3-carboxamide], with 40 to 80%; and `O=C(N[C@@H](CO)c1nc(-c2c[nH]c3ccc(F)cc23)no1)c1ccc(F)cc1` [Compound 234], with 40 to 80%; and `O=C(Cc1c[nH]c2ccccc12)NC(CO)c1nc(-c2ccc(C(F)(F)F)cc2)no1` (centres unmarked) [Compound 185, N-(2-hydroxy-1-{3-[4-(trifluoromethyl)phenyl]-1,2,4-oxadiazol-5-yl}ethyl)-2-(1H-indol-3-yl)acetamide], with 40 to 80%.
On the same count and under the same terms, then `O=C(N[C@@H](CO)c1nc(-c2c[nH]c3ccc(Cl)cc23)no1)c1ccc(Cl)cc1F` [Compound 252, 4-chloro-N-[(1S)-1-[3-(5-chloro-1H-indol-3-yl)-1,2,4-oxadiazol-5-yl]-2-hydroxyethyl]-2-fluorobenzamide], with 40 to 80%.
For `O=C1CC(c2nc(-c3ccc(OC(F)(F)F)cc3)ns2)CN1c1ccc(Cl)cc1` (centres unmarked) [Compound 121, 1-(4-chlorophenyl)-4-{3-[4-(trifluoromethoxy)phenyl]-1,2,4-thiadiazol-5-yl}pyrrolidin-2-one], the inhibition at 25 µM lay within 40 to 80%.
In the case of `O=C1CC(c2nc(-c3ccc(O)c(F)c3)no2)CN1c1ccc(Cl)cc1` (centres unmarked) [Compound 74, 1-(4-chloro-phenyl)-4-{3-(3-fluoro-4-hydroxyphenyl)-1,2,4-oxadiazol-5-yl}pyrrolidin-2-one], the inhibition at 25 µM fell in the range of 40 to 80%.
Same read-out and setting: the value for `CNCC(NC(=O)c1ccc(Cl)cc1)c1nnc(-c2ccc(OC(F)(F)F)cc2)o1` (centres unmarked) [Compound 118, 4-chloro-N-(2-(methylamino)-1-(5-(4-(tri-fluoromethoxy)phenyl)-1,3,4-oxadiazol-2-yl)ethyl)benzamide] was 40 to 80%; that for `O=C1CC(c2nc(-c3ccccc3OC(F)(F)F)no2)CN1c1ccc(Cl)cc1` (centres unmarked) [Compound 67, 1-(4-chloro-phenyl)-4-[3-{2-(trifluoro-methoxy)phenyl}-1,2,4-oxadiazol-5-yl]pyrrolidin-2-one] was 40 to 80%.
With `O=C1CC(c2nc(-c3ccc(OC(F)F)cc3)no2)CN1c1ccc(Cl)cn1` (centres unmarked) [Compound 62, 1-(5-chloropyridin-2-yl)-4-{3-[4-(difluoromethoxy)phenyl]-1,2,4-oxadiazol-5-yl}pyrrolidin-2-one], the inhibition at 25 µM is 40 to 80%.

The values above are taken from patent US10538516B2, “Oxadiazole derivative and pharmaceutical containing same” (National Center for Geriatrics and Gerontology, priority 2015, dated 2020).
